{"source": "patent US12474342B2", "about": "“Methods for treating cancer and the use of biomarkers as a predictor of clinical sensitivity to therapies” (CELGENE CORPORATION, priority 2016, dated 2025)", "key": {"KASUMI-1 cells": {"system": "KASUMI-1 cells", "assay": "Anti-proliferation 72-hour CTG assay, KASUMI-1", "format": "cell-based", "details": "Homo sapiens; KASUMI-1, 72-hour CTG assay; read-out: IC50 of the anti-proliferative effect", "description": "(§1) A plethora of AML cell lines were treated with serial dilutions of Compound D. IC50 value of the anti-proliferation effect of Compound D (as determined in 72-hour CTG assays) in each cell line is summarized in Table 1."}, "GSPT1": {"target": "GSPT1 (Homo sapiens, UniProt P15170+Q96SW2)", "sequence (P15170 1-637 isoform P15170-3)": "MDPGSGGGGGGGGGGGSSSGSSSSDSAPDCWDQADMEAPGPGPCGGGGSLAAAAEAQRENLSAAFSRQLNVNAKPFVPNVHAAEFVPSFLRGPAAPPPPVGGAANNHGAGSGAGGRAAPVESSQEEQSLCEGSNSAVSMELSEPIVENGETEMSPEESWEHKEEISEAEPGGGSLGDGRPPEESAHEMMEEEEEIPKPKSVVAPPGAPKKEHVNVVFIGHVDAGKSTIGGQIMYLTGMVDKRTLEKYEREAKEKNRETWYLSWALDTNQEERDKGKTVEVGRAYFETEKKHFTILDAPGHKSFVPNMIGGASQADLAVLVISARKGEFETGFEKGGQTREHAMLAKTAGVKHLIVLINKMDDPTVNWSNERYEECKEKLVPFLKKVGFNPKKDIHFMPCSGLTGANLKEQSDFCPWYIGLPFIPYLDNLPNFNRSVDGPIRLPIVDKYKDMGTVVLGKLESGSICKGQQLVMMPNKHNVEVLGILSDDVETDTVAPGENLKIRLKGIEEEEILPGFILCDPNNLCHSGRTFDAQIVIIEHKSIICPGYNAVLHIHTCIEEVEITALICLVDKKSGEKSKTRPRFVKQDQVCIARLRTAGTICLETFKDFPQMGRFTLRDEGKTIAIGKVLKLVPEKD", "sequence (Q96SW2 whole entry)": "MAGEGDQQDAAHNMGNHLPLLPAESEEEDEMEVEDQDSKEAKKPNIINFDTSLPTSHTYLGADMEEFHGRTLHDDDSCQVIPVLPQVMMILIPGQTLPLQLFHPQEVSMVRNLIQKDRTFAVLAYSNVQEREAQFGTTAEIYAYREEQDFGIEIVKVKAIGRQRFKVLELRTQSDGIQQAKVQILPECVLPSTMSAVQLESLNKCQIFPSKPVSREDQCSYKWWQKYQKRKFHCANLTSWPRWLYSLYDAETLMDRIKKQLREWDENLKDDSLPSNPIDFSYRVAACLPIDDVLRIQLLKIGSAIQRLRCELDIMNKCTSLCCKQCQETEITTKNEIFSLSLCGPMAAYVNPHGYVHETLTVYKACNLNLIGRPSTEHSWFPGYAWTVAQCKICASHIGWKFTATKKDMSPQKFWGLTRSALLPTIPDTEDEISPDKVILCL", "sequence (Q16531 whole entry partner)": "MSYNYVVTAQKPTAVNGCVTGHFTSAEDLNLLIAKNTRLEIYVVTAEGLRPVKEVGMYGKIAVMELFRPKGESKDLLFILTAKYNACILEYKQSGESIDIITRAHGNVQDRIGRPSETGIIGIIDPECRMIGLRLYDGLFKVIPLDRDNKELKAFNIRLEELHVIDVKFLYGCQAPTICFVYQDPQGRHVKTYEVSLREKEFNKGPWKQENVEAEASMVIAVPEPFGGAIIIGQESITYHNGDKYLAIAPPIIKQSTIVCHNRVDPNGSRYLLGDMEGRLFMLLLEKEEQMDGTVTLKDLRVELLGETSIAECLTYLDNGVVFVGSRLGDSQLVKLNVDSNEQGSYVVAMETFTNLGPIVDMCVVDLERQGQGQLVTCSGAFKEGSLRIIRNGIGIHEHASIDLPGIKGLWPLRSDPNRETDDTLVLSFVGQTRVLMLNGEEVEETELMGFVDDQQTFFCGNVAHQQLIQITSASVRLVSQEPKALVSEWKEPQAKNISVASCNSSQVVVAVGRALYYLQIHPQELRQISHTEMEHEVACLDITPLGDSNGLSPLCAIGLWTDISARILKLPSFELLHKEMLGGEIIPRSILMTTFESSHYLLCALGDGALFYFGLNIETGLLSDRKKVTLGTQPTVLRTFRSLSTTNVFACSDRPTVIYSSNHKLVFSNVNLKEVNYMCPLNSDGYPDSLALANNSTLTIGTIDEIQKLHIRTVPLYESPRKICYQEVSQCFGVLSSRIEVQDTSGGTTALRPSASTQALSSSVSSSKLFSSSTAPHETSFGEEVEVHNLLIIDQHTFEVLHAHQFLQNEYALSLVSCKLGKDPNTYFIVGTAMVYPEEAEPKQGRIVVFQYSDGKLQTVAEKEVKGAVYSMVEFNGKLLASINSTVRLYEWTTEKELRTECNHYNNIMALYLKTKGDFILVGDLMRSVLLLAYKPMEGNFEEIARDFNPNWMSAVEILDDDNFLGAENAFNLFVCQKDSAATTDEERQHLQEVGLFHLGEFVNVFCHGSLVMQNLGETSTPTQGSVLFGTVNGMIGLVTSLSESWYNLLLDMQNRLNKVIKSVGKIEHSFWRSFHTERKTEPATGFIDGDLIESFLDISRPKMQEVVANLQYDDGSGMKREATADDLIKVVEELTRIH", "assay": "GSPT1 protein reduction, western analysis, normal PBMCs", "quoted_text": "PBMC were treated with 1 nM, 10 nM, 100 nM, or 1000 nM of Compound D or Compound E for 20 hours."}, "HL-60 cells": {"system": "HL-60 cells", "assay": "Anti-proliferation 72-hour CTG assay, HL-60", "format": "cell-based", "details": "Homo sapiens; HL-60, 72-hour CTG assay; read-out: IC50 of the anti-proliferative effect", "description": "as §1"}, "[1]": {"system": "translational readthrough", "assay": "AML2 readthrough assay (Fluc/Nluc-G36A reporter), OCI-AML2", "format": "cell-based, human", "details": "300 μg/ml G418 or 200 nM Compound D", "description": "It is known that amino acid starvation causes GCN2 activation, which phosphorylates eIF2α. Because GSPT1 mediates normal translation termination, it is hypothesized that depletion of GSPT1 by Compound D may cause readthrough of stop codons. Whether the translational readthrough induced by Compound D contributes to the increased levels of p-eIF2α was investigated. OCI-AML2 cells stably expressing the Fluc/Nluc-G36A readthrough reporter were treated with 300 μg/ml G418 or 200 nM Compound D for 2, 4, 6, 8, 10, 12, or 16 hours. The levels of p-eIF2α were measured by immunoblot analysis. AML2 readthrough assay was conducted to measure the readthrough reporter."}, "ATF3": {"system": "ATF3", "assay": "ATF3 mRNA, quantitative PCR, KG-1", "format": "cell-based, human", "details": "KG-1, 100 nM Compound D or greater", "description": "Compound D regulates UPR stress RNAs, ATF3 and CHOP, and nonsense-mediated decay (NMD) RNAs, SRSF3 and SRSF6, in KG-1 cells in both dose- and time-dependent manners. KG-1 cells were plated in 10 cm^2 dishes and incubated overnight. The following day, KG-1 cells were treated with a 6-point dose response (0, 3, 10, 30, 100, 300 nM) of Compound D and incubated for 2, 4, 8, and 20 hours. Cells were removed from dishes and cell pellets were prepared for RNA isolation (Qiagen RNA isolation kit). Total RNA was quantitated using NanoDrop spectrophotometer and cDNA was reversely transcribed using 1 μg total RNA. Quantitative PCR was performed in replicates for each sample using primer sets for ATF3, CHOP, and both NMD and normal transcripts of SRSF3 and SRSF6. Data was doubly normalized to the 18S housekeeping gene and 2 hour DMSO control. Normalized RNA expression (y-axis) versus drug concentration in nM (x-axis) for each time point was plotted. SRSF3-1 NMD and SRSF6-1 NMD depict amplification of NMD transcript for SRSF3 and SRSF6, respectively. SRSF3-3 Normal and SRSF6-3 Normal depict amplification of normal transcript for SRSF3 and SRSF6 genes, respectively. […] FIGS. 29A-29F show effects of Compound D treatment on UPR and NMD pathways in KG-1 cells. […] Additionally, 100 nM Compound D or greater induced the mRNA levels of ATF3 and DDIT3 (CHOP) approximately 100-fold and 10-fold, respectively. […]"}, "[2]": {"system": "ATF3, DDIT3, cleaved Caspases, cleaved PARP", "assay": "UPR and apoptosis pathway components in KG1 cells", "format": "cell-based, human", "details": "KG1, 200 nM", "description": "Cells were treated with DMSO alone or 200 nM Compound D. After 2, 4, or 6 hours, the expression levels of various cellular components along UPR or apoptosis pathways were measured. […] Reduction of BIP indicates UPR.\nCells were treated with DMSO alone, 200 nM Compound D, or 200 nM Compound E. After 8 or 12 hours, the expression levels of various cellular components along UPR or apoptosis pathways were measured. […] Reduction of BIP indicates UPR.\nTo further investigate the timeline of cellular events upon Compound D treatment, KG1 cells were treated with DMSO alone or 200 nM Compound D. At 2, 4, 6, 8, 10, or 12 hours, the expression levels of various cellular components along ATF4 or apoptosis pathways were measured."}, "OCI-AML3 cells": {"system": "OCI-AML3 cells", "assay": "Anti-proliferation CTG assay, OCI-AML3", "format": "cell-based, human", "description": "as §1\nThe effect of depletion of GSPT1 on the anti-proliferative effect of compound Compound D and Compound E was also determined in human acute myelogenous leukemia cell lines AML and KG1. Cells were infected with lentiviral vectors expressing control shRNA, shGSPT1-1 or shGSPT1-3 for 7 days and then treated with DMSO, Compound D or Compound E in a titration from 0.0001 μM to 1 μM. Two days after treatment, cell proliferation was measured by CellTiter-Glo cell viability. […] Both shGSPT1-1 and shGSPT1-3 reduced the expression of GSPT1, eRF1, and slightly of CRBN."}, "KG-1a cells": {"system": "KG-1a cells", "assay": "Anti-proliferation 72-hour CTG assay, KG-1a", "format": "cell-based", "details": "Homo sapiens, read-out: IC50 of the anti-proliferative effect", "description": "as §1"}}}
{"smiles": "O=C1CCC(N2Cc3cc(CNC(=O)C(F)(F)c4ccc(Cl)cc4)ccc3C2=O)C(=O)N1", "note": "(stereo not drawn) [Compound D, 2-(4-chlorophenyl)-N-((2-(2,6-dioxopiperidin-3-yl)-1-oxoisoindolin-5-yl)methyl)-2,2-difluoroacetamide]", "values": [{"measurement": "IC50", "setting": "KASUMI-1 cells", "value": 21, "unit": "nM"}, {"measurement": "Reduction in GSPT1 Protein Level", "setting": "GSPT1; PBMC sample 4328 (normal), 100 nM Compound D, 8 hours", "value": 67, "unit": "%"}, {"measurement": "Reduction in GSPT1 Protein Level", "setting": "GSPT1; PBMC sample 4328 (normal), 100 nM Compound D, 22 hours", "value": 92, "unit": "%"}, {"measurement": "Reduction in GSPT1 Protein Level", "setting": "GSPT1; PBMC sample 4328 (normal), 300 nM Compound D, 8 hours", "value": 80, "unit": "%"}, {"measurement": "Reduction in GSPT1 Protein Level", "setting": "GSPT1; PBMC sample 4328 (normal), 300 nM Compound D, 22 hours", "value": 98, "unit": "%"}, {"measurement": "Reduction in GSPT1 Protein Level", "setting": "GSPT1; PBMC sample 4379 (normal), 100 nM Compound D, 8 hours", "value": 39, "unit": "%"}, {"measurement": "Reduction in GSPT1 Protein Level", "setting": "GSPT1; PBMC sample 4379 (normal), 100 nM Compound D, 22 hours", "value": 73, "unit": "%"}, {"measurement": "Reduction in GSPT1 Protein Level", "setting": "GSPT1; PBMC sample 4379 (normal), 300 nM Compound D, 8 hours", "value": 58, "unit": "%"}, {"measurement": "Reduction in GSPT1 Protein Level", "setting": "GSPT1; PBMC sample 4379 (normal), 300 nM Compound D, 22 hours", "value": 83, "unit": "%"}, {"measurement": "time at which GSPT1 degradation was evident", "setting": "GSPT1; healthy PBMCs, 10 nM Compound D", "value": 4, "unit": "h"}, {"measurement": "IC50", "setting": "HL-60 cells", "value": 20, "unit": "nM"}, {"measurement": "translational readthrough", "setting": "[1]", "value": "induced translational readthrough at a comparable level"}, {"measurement": "induction of ATF3 mRNA level", "setting": "ATF3", "value": "approximately 100 fold"}, {"measurement": "time at which levels of apoptotic markers started to increase", "setting": "[2]", "value": "approximately 6 hrs"}, {"measurement": "level of ATF3, DDIT3, cleaved Caspase-3, cleaved Caspase-8, and cleaved PARP", "setting": "[2]; 8 or 12 hours", "value": "increased the level"}, {"measurement": "cell proliferation (CellTiter-Glo)", "setting": "OCI-AML3 cells; AML3 parental or control shRNA cells, 0.0001 μM to 1 μM, two days", "value": "exhibited anti-proliferative effect, particularly at high concentration"}, {"measurement": "IC50", "setting": "OCI-AML3 cells; Homo sapiens, OCI-AML-3, OCI-AML3, 72-hour CTG assay, read-out: IC50 of the anti-proliferative effect", "value": 3400, "unit": "nM"}, {"measurement": "IC50", "setting": "KG-1a cells", "value": 21, "unit": "nM"}]}
